Common to all, as to format: in vivo
In one assay the test system is Septoria tritici. The assay can be described thus: Test A: wheat leaf blotch, preventive spray on wheat seedlings. Particulars: 100 = 100% disease control, 0 = no control relative to controls. The method, boiled down:
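Compounds were suspended in acetone/water (50/50) with 250 ppm PEG400 and sprayed to run-off on wheat seedlings. The next day the seedlings were inoculated with Septoria tritici spores, held 48 h at 24 °C in saturated humidity, then 17 days at 20 °C. Disease control was rated 0–100 relative to controls.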

The test system of assay [1] is Puccinia recondita f. sp. tritici. As to the kind of experiment: Test B: wheat leaf rust, preventive spray on wheat seedlings. Particulars: 100 = 100% disease control, 0 = no control relative to controls. The essentials: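 Compounds in acetone/water (50/50) with 250 ppm PEG400, sprayed to run-off on wheat seedlings at stated ppm; inoculated next day with P. recondita spores. Held 24 h saturated at 20° C., then 7 days in growth chamber at 20° C.; rating 0–100 = % disease control vs controls.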

The subject of assay [2] is Blumeria graminis f. sp. tritici. As to the kind of experiment: Test C: wheat powdery mildew, preventive spray on wheat seedlings. The conditions noted are these: rated after 8 days, 100 = 100% disease control, 0 = no control. The essentials: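 Compound dissolved in acetone (3% of final volume), then suspended in 50/50 acetone/water with 250 ppm PEG400 and sprayed to run-off on wheat seedlings. Inoculated next day with B. graminis f. sp. tritici spore dust, kept 8 days at 20° C; visual rating, 100 = full control, 0 = none, relative to controls.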

The test system of a further assay is Phakopsora pachyrhizi. As to the kind of experiment: Test D: Asian soybean rust, preventive spray on soybean seedlings. Particulars: 100 = 100% disease control, 0 = no control. The method, boiled down:
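Soybean seedlings sprayed to run-off with compound suspension (ppm, in 50/50 acetone/water with 250 ppm PEG400), inoculated next day with P. pachyrhizi spores, held 24 h saturated at 22°C then 8 days at 22°C. Visual rating 0-100% disease control relative to controls.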

For the next assay, the system named is Botrytis cinerea. The assay can be described thus: Test E: tomato Botrytis, preventive spray on tomato seedlings. The conditions noted are these: 100 = 100% disease control, 0 = no control. The essentials: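 Tomato seedlings sprayed to run-off with compound (ppm) in acetone/water with 250 ppm PEG400, then inoculated next day with B. cinerea spores. Held 48 h at 20 °C in saturated atmosphere, then 3 days at 24 °C. Visual rating 0–100% disease control relative to untreated controls.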

A further assay has as its system Alternaria solani. As to the kind of experiment: Test F: tomato early blight, preventive spray on tomato seedlings. Particulars: 100 = 100% disease control, 0 = no control. The method, boiled down:
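Compounds in acetone/water (50/50) with 250 ppm PEG400, dosed in ppm, sprayed to run-off on tomato seedlings; next day inoculated with A. solani spores. Held 48 h saturated at 27° C, then 3 days at 20° C; visual rating 0–100% disease control relative to controls.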

The structures appear in SMILES notation.

Consider `COc1cc(F)c(-c2c(C)nn(C)c2Nc2c(Cl)cc(Cl)cc2[N+](=O)[O-])c(F)c1` [Compound 82], for which, in the assay with Septoria tritici (50 ppm), the “Test A disease control rating (wheat leaf blotch)” value (from here on “Test A disease control rating”) turned out to be 100%. For the same molecule, in assay [1] (50 ppm), the “Test B disease control rating (wheat leaf rust)” value (shortened to “Test B disease control rating”) amounted to 100%. Besides, the “Test C disease control rating (wheat powdery mildew)” value (from here on “Test C disease control rating”) in assay [2] (50 ppm) is given as 58%. Also, the “Test D disease control rating (Asian soybean rust)” value (“Test D disease control rating” below) with Phakopsora pachyrhizi (50 ppm) is 59%. Also, the “Test E disease control rating (tomato Botrytis)” value (“Test E disease control rating” for short) in the assay with Botrytis cinerea (50 ppm) is reported as 96%. For the same molecule, the “Test F disease control rating (tomato early blight)” value (“Test F disease control rating” for short) in the assay on Alternaria solani (50 ppm) amounted to 97%.

As for `COc1cc(F)c(-c2c(C)nn(C)c2Nc2ccc(F)cc2[N+](=O)[O-])c(F)c1` [Compound 83], the “Test A disease control rating” value in the assay with Septoria tritici (50 ppm) came out at 99%. Also, in assay [1] (50 ppm), the “Test B disease control rating” value is given as 91%. The “Test C disease control rating” value in assay [2] (50 ppm) amounted to 99%. Also, the “Test D disease control rating” value with Phakopsora pachyrhizi (50 ppm) is on record as 0%. For the same molecule, the “Test E disease control rating” value with Botrytis cinerea (50 ppm) is recorded as 98%. In addition, in the assay on Alternaria solani (50 ppm), the “Test F disease control rating” value turned out to be 99%.

As for `COc1cc(F)c(-c2c(C)nn(C)c2Nc2c(F)cc(F)cc2[N+](=O)[O-])c(F)c1` [Compound 84], in the assay on Septoria tritici (50 ppm), the “Test A disease control rating” value stood at 100%. In assay [1] (50 ppm), the “Test B disease control rating” value is recorded as 100%. For the same molecule, in assay [2] (50 ppm), the “Test C disease control rating” value was 99%. Moreover, the “Test D disease control rating” value in the assay on Phakopsora pachyrhizi (50 ppm) stood at 48%. In addition, the “Test E disease control rating” value with Botrytis cinerea (50 ppm) amounted to 90%. The “Test F disease control rating” value in the assay with Alternaria solani (50 ppm) worked out at 99%.

As to `COc1cc(F)c(Nc2c(-c3ccc(F)cc3Cl)c(C)nn2C)c([N+](=O)[O-])c1` [Compound 85], the “Test A disease control rating” value with Septoria tritici (50 ppm) is 100%. Besides, the “Test B disease control rating” value in assay [1] (50 ppm) came out at 100%. In assay [2] (50 ppm), the “Test C disease control rating” value came out at 97%. For the same molecule, in the assay on Phakopsora pachyrhizi (50 ppm), the “Test D disease control rating” value is listed as 96%. For the same molecule, the “Test E disease control rating” value with Botrytis cinerea (50 ppm) is 94%. The “Test F disease control rating” value in the assay on Alternaria solani (50 ppm) is given as 98%.

Take `COc1cc(F)c(-c2c(C)nn(C)c2Nc2c(F)cc(Cl)cc2[N+](=O)[O-])c(F)c1` [Compound 86]: the “Test A disease control rating” value in the assay on Septoria tritici (50 ppm) worked out at 100%. Besides, the “Test B disease control rating” value in assay [1] (50 ppm) is on record as 100%. In assay [2] (50 ppm), the “Test C disease control rating” value is on record as 98%. Moreover, the “Test D disease control rating” value in the assay on Phakopsora pachyrhizi (50 ppm) came out at 77%. In the assay with Botrytis cinerea (50 ppm), the “Test E disease control rating” value is 96%. For the same molecule, the “Test F disease control rating” value in the assay with Alternaria solani (50 ppm) came to 99%.

On to `Cc1ccc(Nc2c(-c3ccc(F)cc3Br)c(C)nn2C)c([N+](=O)[O-])c1` [Compound 90], for which the “Test A disease control rating” value in the assay on Septoria tritici (50 ppm) turned out to be 100%. The “Test B disease control rating” value in assay [1] (50 ppm) amounted to 95%. Also, in assay [2] (50 ppm), the “Test C disease control rating” value is recorded as 87%. Moreover, in the assay on Phakopsora pachyrhizi (50 ppm), the “Test D disease control rating” value turned out to be 0%. Also, in the assay with Botrytis cinerea (50 ppm), the “Test E disease control rating” value was found to be 99%. In the assay with Alternaria solani (50 ppm), the “Test F disease control rating” value is on record as 9%.

Regarding `Cc1nn(C)c(Nc2ccc(Br)cc2[N+](=O)[O-])c1-c1ccc(F)cc1Cl` [Compound 91], the “Test A disease control rating” value in the assay with Septoria tritici (50 ppm) is 99%. Besides, the “Test B disease control rating” value in assay [1] (50 ppm) was determined as 88%. Besides, the “Test C disease control rating” value in assay [2] (50 ppm) was 84%. Further, the “Test D disease control rating” value with Phakopsora pachyrhizi (50 ppm) is 0%. In addition, the “Test E disease control rating” value with Botrytis cinerea (50 ppm) was found to be 99%. Besides, the “Test F disease control rating” value in the assay with Alternaria solani (50 ppm) is 26%.

With `Cc1nn(C)c(Nc2ccc(Cl)cc2[N+](=O)[O-])c1-c1ccc(F)cc1Cl` [Compound 92], the “Test A disease control rating” value in the assay on Septoria tritici (50 ppm) is listed as 100%. The “Test B disease control rating” value in assay [1] (50 ppm) turned out to be 96%. For the same molecule, the “Test C disease control rating” value in assay [2] (50 ppm) is listed as 89%. In the assay with Phakopsora pachyrhizi (50 ppm), the “Test D disease control rating” value is reported as 0%. Further, the “Test E disease control rating” value with Botrytis cinerea (50 ppm) is 100%. Besides, in the assay on Alternaria solani (50 ppm), the “Test F disease control rating” value was 79%.

On to `Cc1cc(F)c(Nc2c(-c3ccc(F)cc3Cl)c(C)nn2C)c([N+](=O)[O-])c1` [Compound 93, 4-(2-chloro-4-fluorophenyl)-N-(2-fluoro-4-methyl-6-nitrophenyl)-1,3-dimethyl-1H-pyrazol-5-amine], for which the pest or weed control at 10 ppm in the assay with Septoria tritici (Zymoseptoria tritici, 10 ppm, read-out: Test A disease control rating (wheat leaf blotch)) was found to be 99%; in assay [1] (10 ppm, read-out: Test B disease control rating (wheat leaf rust)), 100%; in assay [2] (Blumeria graminis, 192 h, 10 ppm, read-out: Test C disease control rating (wheat powdery mildew)), 97%; in the assay with Phakopsora pachyrhizi (Phakopsora pachyrhizi, 10 ppm, read-out: Test D disease control rating (Asian soybean rust)) it was 87%; in the assay on Botrytis cinerea (Botrytis cinerea, 10 ppm, read-out: Test E disease control rating (tomato Botrytis)), 99%; with Alternaria solani (Alternaria solani, 10 ppm, read-out: Test F disease control rating (tomato early blight)), 99%. For the same molecule, the pest or weed control at 50 ppm in the assay with Septoria tritici (Zymoseptoria tritici, 50 ppm, read-out: Test A disease control rating (wheat leaf blotch)) stood at 100%; in assay [1] (50 ppm, read-out: Test B disease control rating (wheat leaf rust)), 100%; in assay [2] (Blumeria graminis, 192 h, 50 ppm, read-out: Test C disease control rating (wheat powdery mildew)), 99%; in the assay on Phakopsora pachyrhizi (Phakopsora pachyrhizi, 50 ppm, read-out: Test D disease control rating (Asian soybean rust)), 100%; in the assay with Botrytis cinerea (Botrytis cinerea, 50 ppm, read-out: Test E disease control rating (tomato Botrytis)) it was 100%; in the assay on Alternaria solani (Alternaria solani, 50 ppm, read-out: Test F disease control rating (tomato early blight)), 99%.

Take `Cc1nn(C)c(Nc2ccc(OC(F)(F)F)cc2[N+](=O)[O-])c1-c1ccc(F)cc1Cl` [Compound 94]: in the assay with Septoria tritici (50 ppm), the “Test A disease control rating” value was determined as 73%. Further, the “Test B disease control rating” value in assay [1] (50 ppm) was determined as 0%. Moreover, the “Test C disease control rating” value in assay [2] (50 ppm) is 72%. In addition, the “Test D disease control rating” value in the assay with Phakopsora pachyrhizi (50 ppm) is 73%. In the assay on Botrytis cinerea (50 ppm), the “Test E disease control rating” value turned out to be 0%. The “Test F disease control rating” value in the assay on Alternaria solani (50 ppm) turned out to be 9%.

Take `CCc1nn(C)c(Nc2c(F)cc(F)cc2[N+](=O)[O-])c1-c1ccc(F)cc1Cl` [Compound 95]: the “Test A disease control rating” value in the assay on Septoria tritici (50 ppm) was 100%. Moreover, the “Test B disease control rating” value in assay [1] (50 ppm) is 100%. Also, the “Test C disease control rating” value in assay [2] (50 ppm) turned out to be 100%. Moreover, in the assay on Phakopsora pachyrhizi (50 ppm), the “Test D disease control rating” value was 84%. Also, the “Test E disease control rating” value in the assay with Botrytis cinerea (50 ppm) turned out to be 99%. The “Test F disease control rating” value in the assay with Alternaria solani (50 ppm) stood at 99%.

`Cc1nn(C)c(Nc2c(Cl)cc(Cl)cc2[N+](=O)[O-])c1-c1c(F)cccc1F` [Compound 96]: in the assay with Septoria tritici (50 ppm), the “Test A disease control rating” value came out at 100%. The “Test B disease control rating” value in assay [1] (50 ppm) was determined as 95%. In addition, the “Test C disease control rating” value in assay [2] (50 ppm) is given as 0%. The “Test D disease control rating” value in the assay with Phakopsora pachyrhizi (50 ppm) amounted to 0%. Moreover, the “Test E disease control rating” value with Botrytis cinerea (50 ppm) is 80%. The “Test F disease control rating” value in the assay with Alternaria solani (50 ppm) was found to be 0%.

Turning to `COc1cc(F)c(Nc2c(-c3c(F)cccc3F)c(C)nn2C)c([N+](=O)[O-])c1` [Compound 97], in the assay on Septoria tritici (50 ppm), the “Test A disease control rating” value is listed as 100%. Further, the “Test B disease control rating” value in assay [1] (50 ppm) is 100%. The “Test C disease control rating” value in assay [2] (50 ppm) is given as 100%. Moreover, in the assay on Phakopsora pachyrhizi (50 ppm), the “Test D disease control rating” value worked out at 96%. Besides, the “Test E disease control rating” value in the assay with Botrytis cinerea (50 ppm) is reported as 100%. Besides, the “Test F disease control rating” value in the assay on Alternaria solani (50 ppm) is on record as 99%.

On to `Cc1nn(C)c(Nc2c(F)cc(Cl)cc2[N+](=O)[O-])c1-c1c(F)cccc1F` [Compound 98], for which, in the assay with Septoria tritici (50 ppm), the “Test A disease control rating” value is 100%. For the same molecule, the “Test B disease control rating” value in assay [1] (50 ppm) was determined as 97%. For the same molecule, the “Test C disease control rating” value in assay [2] (50 ppm) is given as 93%. The “Test D disease control rating” value in the assay on Phakopsora pachyrhizi (50 ppm) is on record as 0%. The “Test E disease control rating” value in the assay on Botrytis cinerea (50 ppm) is reported as 99%. In the assay with Alternaria solani (50 ppm), the “Test F disease control rating” value was 98%.

For `Cc1nn(C)c(Nc2cccc(Cl)c2[N+](=O)[O-])c1-c1c(F)cccc1F` [Compound 99], in the assay with Septoria tritici (50 ppm), the “Test A disease control rating” value is recorded as 99%. For the same molecule, the “Test B disease control rating” value in assay [1] (50 ppm) is 0%. Besides, the “Test C disease control rating” value in assay [2] (50 ppm) is reported as 0%. Further, the “Test D disease control rating” value in the assay on Phakopsora pachyrhizi (50 ppm) came out at 0%. In the assay with Botrytis cinerea (50 ppm), the “Test E disease control rating” value stood at 24%. The “Test F disease control rating” value in the assay with Alternaria solani (50 ppm) came out at 0%.
